Where a name gives a salt, the structure may show the parent alone.
Assays:
[1] = biological target: T1, cold-active Vibrio alkaline phosphatase (VAP) (Vibrio sp. G15-21, UniProt Q93P54); assay: inhibition of native alkaline phosphatase activity at pH […] (n = […]); type: biochemical
T1 sequence (Q93P54 20-521): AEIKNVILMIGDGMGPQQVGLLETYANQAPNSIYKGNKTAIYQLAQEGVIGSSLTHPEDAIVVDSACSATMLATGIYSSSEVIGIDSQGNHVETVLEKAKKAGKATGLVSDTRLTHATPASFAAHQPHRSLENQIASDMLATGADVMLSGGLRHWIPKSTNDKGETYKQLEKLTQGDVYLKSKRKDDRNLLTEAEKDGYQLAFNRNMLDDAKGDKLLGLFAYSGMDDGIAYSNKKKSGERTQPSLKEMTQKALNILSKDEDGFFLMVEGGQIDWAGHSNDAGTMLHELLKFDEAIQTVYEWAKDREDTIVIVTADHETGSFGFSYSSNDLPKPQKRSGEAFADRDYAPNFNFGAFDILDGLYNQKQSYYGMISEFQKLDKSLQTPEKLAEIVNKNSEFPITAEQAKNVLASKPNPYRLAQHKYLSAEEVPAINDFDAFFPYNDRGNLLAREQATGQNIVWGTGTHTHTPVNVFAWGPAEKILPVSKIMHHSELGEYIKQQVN

[2] = biological target: phosphoinositide-specific phospholipase C (PI-PLC) (Bacillus cereus, UniProt P14262); assay: inhibition of phospholipase activity of commercial PI-PLC on PI-containing large unilamellar vesicles (turbidity/aggregation assay); type: biochemical
phosphoinositide-specific phospholipase C (PI-PLC), sequence (P14262 32-329 limits assumed): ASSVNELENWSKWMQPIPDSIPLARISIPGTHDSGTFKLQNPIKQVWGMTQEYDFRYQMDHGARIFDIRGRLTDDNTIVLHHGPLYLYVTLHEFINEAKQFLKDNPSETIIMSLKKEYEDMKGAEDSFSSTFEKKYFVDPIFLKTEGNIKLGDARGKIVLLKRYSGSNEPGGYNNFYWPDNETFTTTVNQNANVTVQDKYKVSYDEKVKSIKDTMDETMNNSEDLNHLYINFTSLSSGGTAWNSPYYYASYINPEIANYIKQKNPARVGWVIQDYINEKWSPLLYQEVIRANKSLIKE

## NCCc1ccc(S(=O)(=O)F)cc1 [AEBSF, 4-(2-aminoethyl) benzenesulfonyl fluoride hydrochloride]
[1]
  IC50: 350 µM
[2]
  IC50: 18 µM

Reference: publication PMC3733634, “A Computational Module Assembled from Different Protease Family Motifs Identifies PI PLC from Bacillus cereus as a Putative Prolyl Peptidase with a Serine Protease Scaffold” (PLoS ONE, 2013)
